Results from patent US4843087A (priority 1986, dated 1989).
≈ marks a conversion by molar mass, not a printed value.

Columns and labels:
[1] = system: human rhinovirus (HRV) serotypes; test: microbe, parasite or virus in culture; type: cell-based; details: for MIC50: read-out: Rhinovirus MIC50; for IC (MIC80 of serotype panel): read-out: Rhinovirus MIC80
Polio 2 = test: microbe, parasite or virus in culture; type: cell-based, poliovirus; details: Enterovirus C, HeLa, read-out: Polio 2 MIC

Structure (SMILES) | MIC50 [1] [µg/mL] | IC (MIC80 of serotype panel) [1] [µg/mL] | MIC (Polio 2) [µg/mL]
Cc1cc(CCCCCOc2ccc(C3=NC(C)CO3)cc2)on1 (stereo not drawn) [Example 56, 5-{5-[4-(4,5-Dihydro-4-methyl-2-oxazolyl)phenoxy]pentyl}-3-methylisoxazole] | 0.164 (≈ 0.499 µM) | 25.3 | 0.07 (≈ 0.213 µM)
Cc1cc(CCCCCCCOc2ccc(C3=NCCO3)c(O)c2)on1 [Example 59, 5-{7-[4-(4,5-Dihydro-2-oxazolyl)-3-hydroxyphenoxy]heptyl}-3-methylisoxazole] | 0.435 (≈ 1.21 µM) | 25.2 | 0.04 (≈ 0.112 µM)
CCc1cc(C2=NCCO2)ccc1OCCCCCc1cc(C)no1 [Example 60, 5-{5-[4-(4,5-Dihydro-2-oxazolyl)-2-ethylphenoxy]pentyl}-3-methylisoxazole] | 0.1 (≈ 0.292 µM) | 0.7 | 0.24 (≈ 0.701 µM)
C=CCc1cc(C2=NCCO2)ccc1OCCCCCc1cc(C)no1 [Example 61, 5-{5-[4-(4,5-Dihydro-2-oxazolyl)-2-(2-propenyl)phenoxy]pentyl}-3-methylisoxazole] | 0.39 (≈ 1.1 µM) | 0.75 | 0.54 (≈ 1.52 µM)
Cc1cc(CCCCCOc2ccc(C3=NC(C)(C)CO3)cc2)on1 [Example 62, 5-{5-[4-(4,5-Dihydro-4,4-dimethyl-2-oxazolyl)phenoxy]pentyl}-3-methylisoxazole] | 1.5 (≈ 4.38 µM) | 2.4 | 0.51 (≈ 1.49 µM)
CC(=O)c1cc(C2=NCCO2)ccc1OCCCCCc1cc(C)no1 [Example 63, 5-{5-[4-(4,5-Dihydro-2-oxazolyl)-2-acetylphenoxy]pentyl}-3-methylisoxazole] | 0.55 (≈ 1.54 µM) | 1.05 | 2.3 (≈ 6.45 µM)
Cc1cc(CCCCOc2ccc(C3=NC(C)CO3)cc2)on1 (stereo not drawn) [Example 64, 5-{4-[4-(4,5-Dihydro-4-methyl-2-oxazoly)phenoxy]butyl}-3-methylisoxazole] | 0.485 (≈ 1.54 µM) | 25.6 | 2.4 (≈ 7.63 µM)
Cc1cc(CCC=CCOc2ccc(C3=NCCO3)cc2Cl)on1 [Example 68, 5-{5-[2-Chloro-4-(4,5-dihydro-2-oxazolyl)phenoxy]-3-pentenyl}-3-methylisoxazole] | 0.4 (≈ 1.15 µM) | 1 | 0.23 (≈ 0.663 µM)
Cc1cc(CCCCCOc2ccc(C3=NCCO3)cc2C=O)on1 [Example 70, 5-{5-[4-(4,5-Dihydro-2-oxazolyl)-2-formylphenoxy]pentyl}-3-methylisoxazole] | 0.85 (≈ 2.48 µM) | 1.6 | 0.1 (≈ 0.292 µM)
Cc1cc(CCCCCOc2c(Br)cc(C3=NCCO3)cc2Br)on1 [Example 74, 5-{5-[2,6-Dibromo-4-(4,5-dihydro-2-oxazolyl)phenoxy]pentyl}-3-methylisoxazole] | 0.13 (≈ 0.275 µM) | 0.59 | 2 (≈ 4.24 µM)
Cc1cc(CCCCCOc2ccc(C3=NCC(CO)O3)cc2)on1 (stereo not drawn) [Example 75, 5-{5-[4-(4,5-Dihydro-5-hydroxymethyl-2-oxazolyl)phenoxyl]pentyl}-3-methylisoxazole] | 9.95 (≈ 28.9 µM) | 35.2 | 0.69 (≈ 2 µM)
Cc1cc(CCCCCOc2ccc(C3=NC(C)CO3)c(Cl)c2)on1 (stereo not drawn) [Example 77, 5-{5-[3-Chloro-4-(4,5-dihydro-4-methyl-2-oxazolyl)phenoxy]pentyl}-3-methylisoxazole] | 0.088 (≈ 0.243 µM) | 1.47 | 0.05 (≈ 0.138 µM)
Cc1cc(CCCCCOc2ccc(C3=NCCO3)c(C)c2C)on1 [Example 79, 5-{5-[4-(4,5-Dihydro-2-oxazolyl)-2,3-dimethylphenoxy]pentyl}-3-methylisoxazole] | 0.3 (≈ 0.876 µM) | 0.7 | 2.3 (≈ 6.72 µM)
Cc1cc(CCCCCOc2ccc(C3=NCCO3)c(O)c2C)on1 [Example 80, 5-{5-[4-(4,5-Dihydro-2-oxazolyl)-3-hydroxy-2-methylphenoxy]pentyl}-3-methylisoxazole] | 0.13 (≈ 0.377 µM) | 0.27 | 0.11 (≈ 0.319 µM)
Cc1cc(CCCOCOCCOc2ccc(C3=NCCO3)cc2Cl)on1 [Example 82, 5-{3-[[2-[2-Chloro-4-(4,5-dihydro-2-oxazolyl)phenoxy]ethoxy]methoxy]propyl}-3-methylisoxazole] | 1.2 (≈ 3.04 µM) | 5.4 | 2.9 (≈ 7.34 µM)
Cc1cc(CCCOCOCCOc2ccc(C3=NCCO3)cc2C)on1 [Example 83, 5-{3-[[2-[4-(4,5-Dihydro-2-oxazolyl)-2-methylphenoxy]ethoxy]methoxy]propyl}-3-methylisoxazole] | 3.75 (≈ 10 µM) | 99 | 5 (≈ 13.4 µM)
Cc1cc(CCCCCOc2ccc(C3=NCCO3)cc2C(F)F)on1 [Example 84, 5-{5-[2-Difluoromethyl-4-(4,5-dihydro-2-oxazolyl)phenoxy]pentyl}-3-methylisoxazole] | 0.082 (≈ 0.225 µM) | 0.72 | 0.11 (≈ 0.302 µM)
Cc1cc(CCCCCOc2ccc(C3=NCCO3)cc2C(=O)O)on1 [Example 86, 5-{5-[2-Carboxy-4-(4,5-dihydro-2-oxazolyl)phenoxy]pentyl}-3-methylisoxazole] | 99 (≈ 276 µM) | 99 | 2.6 (≈ 7.25 µM)

Structure (SMILES) | MIC50 [1] [µg/mL] | IC (MIC80 of serotype panel) [1] [µg/mL] | MIC (Polio 2) [µg/mL]
Cc1cc(CCCCCOc2ccc(-c3ncco3)cc2)on1 [Example 88, 3-Methyl-5-{5-[4-(2-oxazolyl)phenoxy]pentyl}isoxazole] | 0.38 (≈ 1.22 µM) | 25.2 | 0.025 (≈ 0.08 µM)
Cc1cc(CCCCCOc2ccc(-c3nc(C)c(C)o3)cc2C)on1 [Example 90, 5-{5-[4-(4,5-Dimethyl-2-oxazolyl)-2-methylphenoxy]pentyl}-3-methylisoxazole] | 0.2 (≈ 0.564 µM) | 0.49 | 1.5 (≈ 4.23 µM)
Cc1cc(CCCCCOc2ccc(-c3ncco3)cc2Br)on1 [Example 92, 5-{5-[2-Bromo-4-(2-oxazolyl)phenoxy]pentyl}-3-methylisoxazole] | 0.07 (≈ 0.179 µM) | 0.61 | 0.07 (≈ 0.179 µM)
Cc1cc(CCCCCOc2ccc(C3=NCCCO3)cc2)on1 [Example 95, 5,6-Dihydro-2-{4-[5-(3-methyl-5-isoxazolyl)pentyloxy]phenyl}-4H-1,3-oxazine] | 1.65 (≈ 5.02 µM) | 26.3 | 0.15 (≈ 0.457 µM)
Cc1cc(CCCCCOc2ccc(-c3cnco3)cc2)on1 [Example 96(b), 3-Methyl-5-{5[4-(5-oxazolyl)phenoxy]pentyl}isoxazole] | 1.4 (≈ 4.48 µM) | 2.5 | 0.095 (≈ 0.304 µM)
Cc1cc(CCCCCOc2c(Cl)cc(-c3cnco3)cc2Cl)on1 [Example 98, 5-{5-[2,6-Dichloro-4-(5-oxazolyl)phenoxy]pentyl}-3-methylisoxazole] | 0.21 (≈ 0.551 µM) | 2.8 | 12.5 (≈ 32.8 µM)
Cc1cc(COCCCCCOc2ccc(C3=NCCO3)cc2)on1 [Example 99, 5-{[[5-[4-(4,5-Dihydro-2-oxazolyl)phenoxy]pentyl]oxy]methyl}-3-methylisoxazole] | 1.3 (≈ 3.77 µM) | 2.3 | 0.27 (≈ 0.784 µM)
Cc1cc(CCCCCOc2ccc(C3=NCCO3)cc2N(C)C)on1 [Example 100, 5-{5-[4-(4,5-Dihydro-2-oxazolyl)-2-(dimethylamino)phenoxy]pentyl}-3-methylisoxazole] | 0.76 (≈ 2.13 µM) | 99 | 6.2 (≈ 17.3 µM)
CCC(=O)Nc1cc(C2=NCCO2)ccc1OCCCCCc1cc(C)no1 [Example 102, 5-{5-[4-(4,5-Dihydro-2-oxazolyl)-2-(propionylamino)phenoxy]pentyl}-3-methylisoxazole] | 12.5 (≈ 32.4 µM) | 99 | 12.5 (≈ 32.4 µM)
Cc1cc(CCCCC[S+]([O-])c2ccc(C3=NCCO3)cc2)on1 (stereo not drawn) [Example 104, 5-{5-[[4-(4,5-Dihydro-2-oxazolyl)phenyl]sulfinyl]pentyl}-3-methylisoxazole] | 9.85 (≈ 28.4 µM) | 12.5 | 12.5 (≈ 36.1 µM)
Cc1cc(CCCCCOc2c(Cl)cc(C3=NCC(C)O3)cc2Cl)on1 (stereo not drawn) [Example 108, 5-{5-[2,6-Dichloro-4-(4,5-dihydro-5-methyl-2-oxazolyl)phenoxy]pentyl}-3-methylisoxazole] | 0.13 (≈ 0.327 µM) | 0.34 | 2.6 (≈ 6.54 µM)
Cc1cc(CC/C=C/COc2c(Cl)cc(C3=NCCO3)cc2Cl)on1 [Example 113, 5-{5-[2,6-Dichloro-4-(4,5-dihydro-2-oxazolyl)phenoxy]-3-pentenyl}-3-methylisoxazole (E-isomer)] | 0.09 (≈ 0.236 µM) | 0.167 | 0.4 (≈ 1.05 µM)
Cc1cc(CCCCCCCOc2c(Cl)cc(C3=NCCO3)cc2Cl)on1 [Example 114, 5-{7-[2,6-Dichloro-4-(4,5-dihydro-2-oxazolyl)phenoxy]heptyl}-3-methylisoxazole] | 0.22 (≈ 0.535 µM) | 0.62 | 0.48 (≈ 1.17 µM)
Cc1cc(CCCOc2c(Cl)cc(C3=NCCO3)cc2Cl)on1 [Example 115, 5-{3-[2,6-Dichloro-4-(4,5-dihydro-2-oxazolyl)phenoxy]propyl}-3-methylisoxazole] | 0.04 (≈ 0.113 µM) | 0.58 | 3.1 (≈ 8.73 µM)
OCc1cc(CCCCCOc2c(Cl)cc(C3=NCCO3)cc2Cl)on1 [Example 116, 5-{5-[2,6-Dichloro-4-(4,5-dihydro-2-oxazolyl)phenoxy]pentyl}-3-isoxazolemethanol] | 0.13 (≈ 0.326 µM) | 0.5 | 3.1 (≈ 7.76 µM)
COCc1cc(CCCCCOc2c(Cl)cc(C3=NCCO3)cc2Cl)on1 [Example 117, 5-{5-[2,6-Dichloro-4-(4,5-dihydro-2-oxazolyl)phenoxy]pentyl}-3-(methoxymethyl)isoxazole] | 0.09 (≈ 0.218 µM) | 0.31 | 0.39 (≈ 0.944 µM)
Cc1cc(CCCCCOc2ccc(-c3nc(C)co3)cc2)on1 [Example 133, 5-{5-[4-(4-Methyl-2-oxazolyl)phenoxy]pentyl}-3-methylisoxazole] | 0.16 (≈ 0.49 µM) | 0.68 | 0.09 (≈ 0.276 µM)
Cc1cc(CCCCCOc2ccc(-c3nc(C)c(C)o3)cc2Cl)on1 [Example 134, 5-{5-[2-Chloro-4-(4,5-dimethyl-2-oxazolyl)phenoxy]pentyl}-3-methylisoxazole] | 0.29 (≈ 0.774 µM) | 0.5 | 1.9 (≈ 5.07 µM)
